Test results taken from publication PMC9880260, “Identification of compounds with activity against Trypanosoma cruzi within a collection of synthetic nucleoside analogs” (Frontiers in Cellular and Infection Microbiology, 2023).

What was measured:
[1] = tested on: T. cruzi amastigotes; experiment: Amastigotes growth inhibition assay (infected Vero cells, 72 h, CPRG); details: for IC50: Trypanosoma cruzi, Vero, 72 h, read-out: [IC50] Anti-amastigote assay; for activity against amastigotes: active = IC50 ≤ 10× that of BNZ
Experimental: Upon washing the monolayers with PBS, purified trypomastigotes were added at a concentration of 1×10^7 trypomastigotes per flask (MOI = 1) and infected monolayers were kept in assay medium. After 18 h, infected Vero cells were PBS-washed and trypsin-detached, diluted at a concentration of 5×10^5 cells per ml in assay medium and 100 μl of that solution (50000 cells) added to 96-well test plates already containing the compounds.
(§2) Half maximum inhibitory (IC50) and half maximum toxicity concentration (TC50) values were determined with GraphPad Prism 7 software (version 7.00, San Diego, USA) using a nonlinear regression analysis model defined by equation 2:
(§3) Values were expressed as means with standard deviations (SD) of at least three independent experiments.

[2] = tested on: HepG2 cells; experiment: HepG2 cell toxicity assay (Alamar Blue, 48 h); assay type: cell-based, human
Experimental: (§1) Compounds were added to the plates and diluted following a dose-response pattern in assay medium. Vero cells were prepared in assay medium and added to each well as described ([Martinez-Peinado et al., 2020]). Each test plate contained its own negative (untreated cells) and positive (medium alone) control wells ([Martinez-Peinado et al., 2020]). BNZ and digitoxin (DTX) were included as non-toxicity and toxicity drug controls, respectively. Parallel assays with HepG2 cells were carried out to evaluate the toxicity of compounds in a human cell line as described ([Martinez-Peinado et al., 2020]). […] Vitality was measured with Alamar Blue (Thermo Fischer Scientific, Waltham, USA) to detect metabolically active (live) cells by fluorimetry. For this, a PBS dilution with 10% Alamar Blue was added to each well and the plates were incubated at 37°C for 6 h. Readout was performed on a TECAN Infinite M Nano+ reader (Tecan Trading AG, Männedorf, Switzerland) using i-control™ 2.0 software and setting excitation at 530 nm and emission at 590 nm.

[3] = tested on: Vero cells; assay type: cell-based; details: green monkey, 96 h
Experimental: as §1

[4] = tested on: T. cruzi Tulahuen parasites; details: Vero TC50 / anti-T. cruzi IC50
Experimental: Trypomastigotes were isolated for the maintenance of the cycle and for the performance of the antiparasitic assays, respectively. Briefly, medium containing free swimming trypomastigotes was harvested in falcon tubes and centrifuged at 2,500 rpm for 10 minutes to remove cell debris. […] In the second case, another centrifugation was made to get rid of any PR remnants that may interfere in the assay readout.
Compounds were added to a flat 96-well cell culture plate (SPL Life Sciences, Pocheon-si, Korea) and diluted in assay medium following a 1:2 dose-response pattern. Vero cells were detached, washed and counted using a Neubauer chamber. On the other side, T. cruzi trypomastigotes were collected and counted. Then, 50,000 trypomastigotes and 50,000 Vero cells were simultaneously added to each well to reach a final volume of 200 μl per well (multiplicity of infection or MOI = 1). […] Note that trypomastigotes are unable to multiply and therefore they mark the enzymatic time zero. In addition to those controls, BNZ-treated wells were also included as a positive control of drug inhibition. Plates were incubated at 37°C for 96 h. After that, chlorophenol red-β-D-galactopyranoside (CPRG) substrate was added to detect the enzymatic activity of β-galactosidase expressed by the parasites. […] Absorbance was measured at 590 nm in an Epoch Gene5 Microplate Spectrophotometer (BioTek, Winooski, USA).
as §2, §3

[5] = Microscopy-based observation of compound dissolution / crystals in assay medium; assay type: physicochemical; details: for solubility: compounds at 750 μM, read-out: solubility issues / crystals formed during the assays
Experimental: Among the eight compounds selected, five carried the benzene ring group at position C8 illustrating the relevance of this substituent. Family by family, L4-0c was the only selected from L4-0.
Figure S3. Crystals of the compounds [750 μM] formed during the assays. The eight compounds selected through the discovery cascade are shown in bold. Besides, those indicated with an asterisk too had solubility issues. BNZ is shown at 400 μM.

Row | Compound | IC50 [1] [µM] | [TC50] HepG2 assay ([2]; human) | [TC50] Vero cells assays [3] | SI Vero cells assays (TC50/IC50) [4] | activity against amastigotes [1] | dissolution in assay medium (microscopy-based observation) [5] | solubility [5] [µM] | [TC50] HepG2 assay ([2]; HepG2 cells, mean ± SD) [µM]
1 | O=C(Cn1ccnc1[N+](=O)[O-])NCc1ccccc1 [BNZ, benznidazole, reference compound] | 1.47 ± 0.08 | 490.90 ± 267.10 µM | 196.90 ± 30.67 µM | 81.36 |  |  |  | 
2 | Cc1nc2c(NCc3ccccc3)ncnc2n1Cc1ccccc1 [Compound L4-0b] |  |  | 68.16 ± 12.00 µM | 4.75 |  |  |  | 
3 | c1ccc(CNc2ncnc3c2nc(-c2ccccc2)n3Cc2ccccc2)cc1 [Compound L4-0c] | 11.2 ± 0.35 | > 10,000 μM | > 1,000 μM |  | active | failed to be completely dissolved |  | 
4 | c1ccc(CCNc2ncnc3c2ncn3CCc2ccccc2)cc1 [Compound L4-1a] |  |  | 39.26 ± 4.81 µM | 2.59 |  |  |  | 
5 | Cc1nc2c(NCCc3ccccc3)ncnc2n1CCc1ccccc1 [Compound L4-1b] |  |  | 55.91 ± 5.64 µM | 3.52 |  |  |  | 
6 | c1ccc(CCNc2ncnc3c2nc(-c2ccccc2)n3CCc2ccccc2)cc1 [Compound L4-1c] | 6.21 ± 0.29 | 53.96 ± 12.33 µM | > 1,000 μM |  | active |  |  | 
7 | COc1ccc(CNc2ncnc3c2nc(-c2ccccc2)n3Cc2ccc(OC)cc2)cc1 [Compound L4-2c] | 6.19 ± 0.21 | > 10,000 μM | > 1,000 μM |  | active |  |  | 
8 | Clc1ccc(CNc2ncnc3c2ncn3Cc2ccc(Cl)cc2)cc1 [Compound L4-4a] | 9.36 ± 0.4 | > 1,000 μM | > 1,000 μM |  | active |  |  | 
9 | Cc1nc2c(NCc3ccc(Cl)cc3)ncnc2n1Cc1ccc(Cl)cc1 [Compound L4-4b] |  |  | 27.01 ± 2.00 µM | 5.17 |  |  |  | 
10 | Clc1ccc(CNc2ncnc3c2nc(-c2ccccc2)n3Cc2ccc(Cl)cc2)cc1 [Compound L4-4c] | 4.2 ± 0.21 | 164.80 ± 38.82 µM | 187.50 ± 54.14 µM |  | active |  |  | 
11 | Brc1ccc(CCNc2ncnc3c2nc(-c2ccccc2)n3CCc2ccc(Br)cc2)cc1 [Compound L4-7c] | 7.51 ± 0.79 | 550.60 ± 130.00 µM | 909.20 ± 564.00 µM |  | active |  |  | 
12 | Clc1cccc(CNc2ncnc3c2ncn3Cc2cccc(Cl)c2)c1 [Compound L4-8a] |  | 35.21 ± 5.52 µM | 346.30 ± 189.30 µM |  |  |  |  | 
13 | Cc1nc2c(NCc3cccc(Cl)c3)ncnc2n1Cc1cccc(Cl)c1 [Compound L4-8b] |  | 17.77 ± 0.71 µM | 60.11 ± 8.50 µM | 11.65 |  |  |  | 
14 | Clc1cccc(CNc2ncnc3c2nc(-c2ccccc2)n3Cc2cccc(Cl)c2)c1 [Compound L4-8c, N,9-bis(3-chlorobenzyl)-8-phenyl-9H-purin-6-amine] | 7.61 ± 0.36 | > 1,000 μM | > 1,000 μM |  | active | presence of crystals | < 750 | 
15 | Cc1nc2c(NCc3ccccc3Cl)ncnc2n1Cc1ccccc1Cl [Compound L4-9b] | 8.87 ± 0.42 | 372.20 ± 51.70 µM | > 1,000 μM |  | active | presence of crystals | < 750 | 
16 | Clc1ccccc1CNc1ncnc2c1nc(-c1ccccc1)n2Cc1ccccc1Cl [Compound L4-9c] | 28.7 ± 2.34 | >10,000 μM | > 10,000 μM | > 10,000 | inactive |  |  | 
17 | C[C@H]1O[C@@H](O[C@H]2[C@@H](O)C[C@H](O[C@H]3[C@@H](O)C[C@H](O[C@H]4CC[C@@]5(C)[C@H](CC[C@@H]6[C@@H]5CC[C@]5(C)[C@@H](C7=CC(=O)OC7)CC[C@]65O)C4)O[C@@H]3C)O[C@@H]2C)C[C@H](O)[C@@H]1O [DTX, digitoxin, reference compound] |  |  |  |  |  |  |  | 1.29 ± 0.40
